Experiments:
[1] = Experimental log P, shake-flask method; assay type: physicochemical; conditions: n-octanol/phosphate buffer pH 7.4, read-out: Exp. Log P
Method: Partition coefficients or experimental log P values of all synthesized compounds (9–23, 30 and 31) were calculated using the shake-flask method. Log P values were determined using n-octanol and phosphate buffer (pH = 7.4) at 10:1 ratio of volumes. Stock solutions (10^−3 M) of compounds were prepared in DMSO. Glass vials were used to make final solutions i.e. stock solution (250 µL) and phosphate buffer (125 µL). To record the absorbance, wavelength was selected based on λmax of the respective compound. Initial absorbance (Ai) for every compound was noted consuming the stock solution in the buffer phase. Now added n-octanol to every vial and shaken well using a mechanical shaker for 50 minutes. To get separation of both phases, glass vials were centrifuged for 35 min. at 2500 rpm. Then, the layer of octanol was separated from glass vial. The final absorbance (Af) of each compound was recorded by using the buffer layer. The values of P for compounds were determined by the following equation (Eq. 8):8 P=Ai−Af/Af×Vw/Vo

EtBr-CT-DNA complex = test system: EtBr-CT-DNA complex; set-up: method as in printed; conditions: used in Eq. 4; ref not given; cited from earlier work

Clc1ccc(-c2cn3ccnc3c(-c3ccc4c(c3)ncn4C3CCCCC3)n2)cc1 [Compound 18, 6-(4-chlorophenyl)-8-(1-cyclohexyl-1H-benzo[d]imidazol-5-yl)imidazo[1,2-a]pyrazine]
melting point: 193 to 196 °C | logP [1]: 1.34

Brc1ccc(-c2cn3ccnc3c(-c3ccc4c(c3)ncn4C3CCCCC3)n2)cc1 [Compound 19, 6-(4-bromophenyl)-8-(1-cyclohexyl-1H-benzo[d]imidazol-5-yl)imidazo[1,2-a]pyrazine]
melting point: 195 to 198 °C | logP [1]: 2.05

COc1ccccc1-c1cn2ccnc2c(-c2ccc3c(c2)ncn3C2CCCCC2)n1 [Compound 20, 8-(1-cyclohexyl-1H-benzo[d]imidazol-5-yl)-6-(2-methoxyphenyl)imidazo[1,2-a]pyrazine]
melting point: 195 to 198 °C | logP [1]: 1.88

Fc1ccccc1-c1cn2ccnc2c(-c2ccc3c(c2)ncn3C2CCCCC2)n1 [Compound 21, 8-(1-cyclohexyl-1H-benzo[d]imidazol-5-yl)-6-(2-fluorophenyl)imidazo[1,2-a]pyrazine]
melting point: 190 to 193 °C | logP [1]: 1.77

FC(F)(F)c1cccc(-c2cn3ccnc3c(-c3ccc4c(c3)ncn4C3CCCCC3)n2)c1 [Compound 23, 8-(1-cyclohexyl-1H-benzo[d]imidazol-5-yl)-6-(3-(trifluoromethyl)phenyl)imidazo[1,2-a]pyrazine]
melting point: 196 to 199 °C | logP [1]: 1.67

CC[n+]1c(-c2ccccc2)c2cc(N)ccc2c2ccc(N)cc21 [ethidium bromide]
known binding constant KEtBr (EtBr-CT-DNA complex): 1e+07 M⁻¹

Source: article PMC7162861, “Synthesis, cytotoxicity, pharmacokinetic profile, binding with DNA and BSA of new imidazo[1,2-a]pyrazine-benzo[d]imidazol-5-yl hybrids” (Scientific Reports, 2020)
